Data set [1] deals with Serine/threonine-protein kinase PAK 6 (Homo sapiens) (UniProt Q9NQU5). Description: Inhibition of human PAK6 (2 to 681 residues) assessed as enzyme activity at 1 uM using 33P ATP by radioactive filter binding assay. Also noted: scale not given: the % may be the effect or the level left.
For data set [2], the target named is Vascular endothelial growth factor receptor (Homo sapiens) (UniProt P17948+P35916+P35968). Description: Inhibition of human VEGFR assessed as enzyme activity at 1 uM using 33P ATP by radioactive filter binding assay. Format: protein assay. Also noted: scale not given: the % may be the effect or the level left.
Data set [3] concerns the target Protein kinase C alpha type (Homo sapiens) (UniProt P17252). The experiment in a line: Inhibition of human PKCalpha (1 to 672 residues) assessed as enzyme activity at 1 uM using 33P ATP by radioactive filter binding assay. Also noted: scale not given: the % may be the effect or the level left.
Data set [4] has as its target Dual specificity tyrosine-phosphorylation-regulated kinase 1A (Homo sapiens) (UniProt Q13627). Description: Inhibition of human DYRK1A (1 to 502 residues) assessed as enzyme activity at 1 uM using 33P ATP by radioactive filter binding assay. On the set-up: scale not given: the % may be the effect or the level left.
Data set [5] has as its target MAP kinase-interacting serine/threonine-protein kinase 1 (Homo sapiens) (UniProt Q9BUB5). Description: Inhibition of human MNK1 (2 to 424 residues) assessed as enzyme activity at 1 uM using 33P ATP by radioactive filter binding assay. On the set-up: scale not given: the % may be the effect or the level left.
Data set [6] in a line: Intrinsic clearance in human liver microsomes. The format is ADME. Particulars: read-out: CLH. (In general: Liver microsomes are a subcellular fraction often used to study metabolism.)
The nature of data set [7]: Intrinsic clearance in mouse liver microsomes. Particulars: read-out: CLH. Format: ADME.
The target in data set [8] is T1, Dual specificity tyrosine-phosphorylation-regulated kinase 3 (Homo sapiens) (UniProt O43781).
T1 sequence (whole entry): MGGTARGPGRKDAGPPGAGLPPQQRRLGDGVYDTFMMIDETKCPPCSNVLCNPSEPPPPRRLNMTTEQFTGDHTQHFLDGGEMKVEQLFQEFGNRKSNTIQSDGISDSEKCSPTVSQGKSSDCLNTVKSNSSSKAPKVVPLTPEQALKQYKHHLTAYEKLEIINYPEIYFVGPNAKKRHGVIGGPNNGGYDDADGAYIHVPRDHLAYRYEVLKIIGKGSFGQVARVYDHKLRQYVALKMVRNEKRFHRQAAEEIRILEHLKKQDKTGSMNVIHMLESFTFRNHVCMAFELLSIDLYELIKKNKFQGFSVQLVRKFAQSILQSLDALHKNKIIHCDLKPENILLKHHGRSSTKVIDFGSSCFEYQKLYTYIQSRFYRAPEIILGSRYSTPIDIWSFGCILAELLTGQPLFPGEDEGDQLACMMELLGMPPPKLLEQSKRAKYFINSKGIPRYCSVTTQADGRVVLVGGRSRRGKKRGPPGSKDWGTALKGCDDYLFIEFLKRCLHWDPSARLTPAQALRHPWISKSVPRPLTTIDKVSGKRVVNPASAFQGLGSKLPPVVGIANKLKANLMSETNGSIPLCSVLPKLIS
Description: Inhibition of human DYRK3 (1 to 588 residues) assessed as enzyme activity at 1 uM using 33P ATP by radioactive filter binding assay. Also noted: scale not given: the % may be the effect or the level left.

Data set [9] has as its target Myosin light chain kinase, smooth muscle (Homo sapiens) (UniProt Q15746). Description: Inhibition of human smMLCK (475 to 838 residues) assessed as enzyme activity at 1 uM using 33P ATP by radioactive filter binding assay. Also noted: scale not given: the % may be the effect or the level left.
Data set [10] can be described thus: Permeability across apical to basolateral side in human Caco2 cells. The format is ADME, cell-based. The conditions noted are these: Caco-2.
The target in data set [11] is Mitogen-activated protein kinase 11 (Homo sapiens) (UniProt Q15759). The experiment in a line: Inhibition of SAPK2b (unknown origin) assessed as enzyme activity at 1 uM using 33P ATP by radioactive filter binding assay. Also noted: scale not given: the % may be the effect or the level left.
Data set [12] has as its target T2, Serine/threonine-protein kinase TBK1 (Homo sapiens) (UniProt Q9UHD2).
T2 sequence (whole entry): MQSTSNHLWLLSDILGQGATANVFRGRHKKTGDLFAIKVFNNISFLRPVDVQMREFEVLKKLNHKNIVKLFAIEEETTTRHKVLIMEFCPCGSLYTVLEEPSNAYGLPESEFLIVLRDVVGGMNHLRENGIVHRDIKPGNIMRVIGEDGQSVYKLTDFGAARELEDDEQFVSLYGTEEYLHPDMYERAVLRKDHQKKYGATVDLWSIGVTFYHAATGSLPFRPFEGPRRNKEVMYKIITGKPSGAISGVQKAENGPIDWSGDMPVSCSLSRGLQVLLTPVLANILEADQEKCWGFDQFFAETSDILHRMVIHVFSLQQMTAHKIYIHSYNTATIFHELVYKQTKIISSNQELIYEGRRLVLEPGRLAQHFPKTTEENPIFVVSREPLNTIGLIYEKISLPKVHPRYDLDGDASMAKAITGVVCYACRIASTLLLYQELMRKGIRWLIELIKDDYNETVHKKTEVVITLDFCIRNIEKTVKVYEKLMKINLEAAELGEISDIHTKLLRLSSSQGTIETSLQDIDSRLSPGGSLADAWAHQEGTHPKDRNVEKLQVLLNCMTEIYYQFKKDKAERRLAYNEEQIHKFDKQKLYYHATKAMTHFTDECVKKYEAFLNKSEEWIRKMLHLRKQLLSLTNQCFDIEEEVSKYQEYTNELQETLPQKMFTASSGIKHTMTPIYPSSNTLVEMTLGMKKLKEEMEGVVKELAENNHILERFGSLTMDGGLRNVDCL
Description: Inhibition of human TBK1 (1 to 729 residues) assessed as enzyme activity at 1 uM using 33P ATP by radioactive filter binding assay. On the set-up: scale not given: the % may be the effect or the level left.

For data set [13], the target named is Phosphatidylinositol 4,5-bisphosphate 3-kinase catalytic subunit beta isoform (Homo sapiens, UniProt P42338). Description: Inhibition of PI3K beta (unknown origin).
Data set [14] has as its target Mitogen-activated protein kinase 10 (Homo sapiens) (UniProt P53779). Description: Inhibition of human JNK3alpha1 assessed as enzyme activity at 1 uM using 33P ATP by radioactive filter binding assay. Also noted: scale not given: the % may be the effect or the level left.
Data set [15] addresses Aurora kinase C (Homo sapiens) (UniProt Q9UQB9). Description: Inhibition of AURKC (unknown origin) assessed as enzyme activity at 1 uM using 33P ATP by radioactive filter binding assay. On the set-up: scale not given: the % may be the effect or the level left.
In data set [16] the target is MAP kinase-activated protein kinase 3 (Homo sapiens) (UniProt Q16644). Description: Inhibition of human MAPKAPK3 (2 to 382 residues) assessed as enzyme activity at 1 uM using 33P ATP by radioactive filter binding assay. Also noted: scale not given: the % may be the effect or the level left.
In data set [17] the target is Homeodomain-interacting protein kinase 3 (Homo sapiens) (UniProt Q9H422). Description: Inhibition of human HIPK3 (161 to 562 residues) assessed as enzyme activity at 1 uM using 33P ATP by radioactive filter binding assay. On the set-up: scale not given: the % may be the effect or the level left.
The target of data set [18] is Serine/threonine-protein kinase Nek7 (Homo sapiens) (UniProt Q8TDX7). The experiment in a line: Inhibition of NEK7 (unknown origin) assessed as enzyme activity at 1 uM using 33P ATP by radioactive filter binding assay. On the set-up: scale not given: the % may be the effect or the level left.
For data set [19], the target named is Ephrin type-B receptor 4 (Homo sapiens) (UniProt P54760). The experiment in a line: Inhibition of human EPHB4 (561 to 987 residues) assessed as enzyme activity at 1 uM using 33P ATP by radioactive filter binding assay. Also noted: scale not given: the % may be the effect or the level left.

Vascular endothelial growth factor receptor (Homo sapiens), sequence (P17948 whole entry, looked up, the tested form may be a part): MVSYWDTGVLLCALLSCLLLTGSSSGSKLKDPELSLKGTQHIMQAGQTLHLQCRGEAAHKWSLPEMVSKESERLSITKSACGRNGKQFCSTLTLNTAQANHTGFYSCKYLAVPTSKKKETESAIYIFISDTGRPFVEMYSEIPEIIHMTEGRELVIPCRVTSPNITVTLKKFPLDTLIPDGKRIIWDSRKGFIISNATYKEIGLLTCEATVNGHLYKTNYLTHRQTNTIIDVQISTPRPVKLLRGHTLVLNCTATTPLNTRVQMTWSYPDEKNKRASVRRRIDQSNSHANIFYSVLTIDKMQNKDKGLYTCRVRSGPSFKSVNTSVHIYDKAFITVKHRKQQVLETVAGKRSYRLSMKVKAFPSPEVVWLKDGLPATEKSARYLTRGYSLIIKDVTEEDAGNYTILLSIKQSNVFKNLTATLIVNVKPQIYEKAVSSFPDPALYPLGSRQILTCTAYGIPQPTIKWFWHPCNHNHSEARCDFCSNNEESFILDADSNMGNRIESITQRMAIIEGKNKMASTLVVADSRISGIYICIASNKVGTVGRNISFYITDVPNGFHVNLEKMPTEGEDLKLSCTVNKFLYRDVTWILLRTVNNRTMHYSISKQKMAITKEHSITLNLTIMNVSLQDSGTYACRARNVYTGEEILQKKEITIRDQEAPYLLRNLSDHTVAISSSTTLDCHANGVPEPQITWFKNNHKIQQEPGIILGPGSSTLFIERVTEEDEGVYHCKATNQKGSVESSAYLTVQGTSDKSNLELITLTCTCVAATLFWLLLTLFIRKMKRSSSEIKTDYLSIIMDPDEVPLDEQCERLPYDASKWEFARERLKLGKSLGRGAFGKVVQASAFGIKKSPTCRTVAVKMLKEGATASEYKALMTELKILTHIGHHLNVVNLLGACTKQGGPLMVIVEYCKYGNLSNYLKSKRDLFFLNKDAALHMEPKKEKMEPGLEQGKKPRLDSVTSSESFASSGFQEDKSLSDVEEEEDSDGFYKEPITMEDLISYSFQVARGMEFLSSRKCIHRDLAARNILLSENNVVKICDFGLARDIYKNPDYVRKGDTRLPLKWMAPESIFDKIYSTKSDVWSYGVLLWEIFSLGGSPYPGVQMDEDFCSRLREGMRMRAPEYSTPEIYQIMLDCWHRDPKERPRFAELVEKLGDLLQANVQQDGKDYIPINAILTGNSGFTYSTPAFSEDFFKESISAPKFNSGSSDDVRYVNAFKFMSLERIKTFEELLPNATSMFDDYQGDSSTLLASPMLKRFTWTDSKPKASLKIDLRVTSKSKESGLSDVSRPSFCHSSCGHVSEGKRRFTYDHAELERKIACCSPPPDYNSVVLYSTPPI
Vascular endothelial growth factor receptor (Homo sapiens), sequence (P35916 whole entry, looked up, the tested form may be a part): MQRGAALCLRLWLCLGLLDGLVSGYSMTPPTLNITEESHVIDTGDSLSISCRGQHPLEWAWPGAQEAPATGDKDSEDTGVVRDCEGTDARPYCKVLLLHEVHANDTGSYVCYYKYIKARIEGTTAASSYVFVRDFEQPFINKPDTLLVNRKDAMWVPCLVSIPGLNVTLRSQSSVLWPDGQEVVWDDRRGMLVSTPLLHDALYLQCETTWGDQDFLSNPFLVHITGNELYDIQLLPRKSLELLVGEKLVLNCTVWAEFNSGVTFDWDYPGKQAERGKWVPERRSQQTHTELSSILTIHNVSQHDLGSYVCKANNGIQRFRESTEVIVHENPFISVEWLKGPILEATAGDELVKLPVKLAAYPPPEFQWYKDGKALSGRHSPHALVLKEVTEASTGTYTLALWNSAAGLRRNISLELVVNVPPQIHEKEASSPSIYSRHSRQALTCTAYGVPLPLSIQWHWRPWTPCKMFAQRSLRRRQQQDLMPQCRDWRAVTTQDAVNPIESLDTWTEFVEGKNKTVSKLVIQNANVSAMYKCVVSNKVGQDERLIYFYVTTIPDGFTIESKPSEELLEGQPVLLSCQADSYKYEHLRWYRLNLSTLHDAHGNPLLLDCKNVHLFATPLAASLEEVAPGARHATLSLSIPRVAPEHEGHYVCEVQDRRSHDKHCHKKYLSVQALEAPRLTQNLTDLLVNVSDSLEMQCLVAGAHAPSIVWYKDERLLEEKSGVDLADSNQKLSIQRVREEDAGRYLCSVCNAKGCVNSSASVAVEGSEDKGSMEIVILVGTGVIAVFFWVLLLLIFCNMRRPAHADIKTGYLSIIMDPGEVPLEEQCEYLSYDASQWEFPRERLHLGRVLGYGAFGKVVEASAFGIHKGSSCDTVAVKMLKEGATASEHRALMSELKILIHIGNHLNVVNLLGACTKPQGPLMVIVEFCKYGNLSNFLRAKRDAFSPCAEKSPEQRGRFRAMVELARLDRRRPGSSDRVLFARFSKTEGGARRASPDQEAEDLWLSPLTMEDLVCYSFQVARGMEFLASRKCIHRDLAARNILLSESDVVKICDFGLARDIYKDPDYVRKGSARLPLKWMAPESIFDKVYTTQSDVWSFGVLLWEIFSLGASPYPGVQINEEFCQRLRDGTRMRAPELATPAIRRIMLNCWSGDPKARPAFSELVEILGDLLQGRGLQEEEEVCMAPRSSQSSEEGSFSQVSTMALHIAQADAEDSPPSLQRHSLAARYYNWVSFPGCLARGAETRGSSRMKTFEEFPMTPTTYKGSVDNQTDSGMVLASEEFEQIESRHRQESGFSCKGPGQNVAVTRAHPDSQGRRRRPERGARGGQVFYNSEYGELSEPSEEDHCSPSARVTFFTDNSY
Vascular endothelial growth factor receptor (Homo sapiens), sequence (P35968 whole entry, looked up, the tested form may be a part): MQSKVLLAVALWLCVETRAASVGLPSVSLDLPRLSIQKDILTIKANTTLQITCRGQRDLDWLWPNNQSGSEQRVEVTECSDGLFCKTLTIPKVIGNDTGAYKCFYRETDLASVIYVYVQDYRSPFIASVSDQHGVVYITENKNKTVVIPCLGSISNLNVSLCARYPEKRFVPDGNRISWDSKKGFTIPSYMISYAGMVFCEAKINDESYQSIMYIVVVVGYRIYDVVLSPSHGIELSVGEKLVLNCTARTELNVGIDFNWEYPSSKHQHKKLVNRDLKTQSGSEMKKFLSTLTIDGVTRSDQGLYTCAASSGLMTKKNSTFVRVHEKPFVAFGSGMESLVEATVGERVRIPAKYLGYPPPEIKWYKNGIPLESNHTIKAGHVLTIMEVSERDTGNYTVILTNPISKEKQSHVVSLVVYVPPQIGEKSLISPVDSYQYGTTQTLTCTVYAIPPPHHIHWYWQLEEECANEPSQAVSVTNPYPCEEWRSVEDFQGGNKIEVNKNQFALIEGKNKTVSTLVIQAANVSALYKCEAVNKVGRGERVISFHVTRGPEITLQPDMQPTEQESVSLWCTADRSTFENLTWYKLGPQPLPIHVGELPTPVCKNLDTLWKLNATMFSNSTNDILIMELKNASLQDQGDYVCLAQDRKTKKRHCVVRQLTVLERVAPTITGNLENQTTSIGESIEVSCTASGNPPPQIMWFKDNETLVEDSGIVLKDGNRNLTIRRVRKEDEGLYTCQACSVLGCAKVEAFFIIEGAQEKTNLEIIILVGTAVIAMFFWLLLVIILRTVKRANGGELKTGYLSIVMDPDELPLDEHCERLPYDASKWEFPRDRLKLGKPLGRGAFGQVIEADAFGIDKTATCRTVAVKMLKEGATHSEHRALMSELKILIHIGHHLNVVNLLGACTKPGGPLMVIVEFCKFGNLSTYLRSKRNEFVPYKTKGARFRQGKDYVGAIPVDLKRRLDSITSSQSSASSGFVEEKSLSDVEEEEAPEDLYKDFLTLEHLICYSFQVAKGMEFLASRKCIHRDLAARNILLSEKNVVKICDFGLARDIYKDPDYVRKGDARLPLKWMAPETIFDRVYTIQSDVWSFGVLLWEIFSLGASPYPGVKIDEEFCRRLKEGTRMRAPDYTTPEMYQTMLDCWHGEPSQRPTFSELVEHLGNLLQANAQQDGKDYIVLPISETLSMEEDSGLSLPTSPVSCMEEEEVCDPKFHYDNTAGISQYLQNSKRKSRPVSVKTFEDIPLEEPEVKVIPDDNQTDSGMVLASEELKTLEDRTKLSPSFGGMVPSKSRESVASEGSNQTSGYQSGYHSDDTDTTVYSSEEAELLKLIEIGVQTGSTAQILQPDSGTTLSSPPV
Mitogen-activated protein kinase 11 (Homo sapiens), sequence (Q15759 whole entry): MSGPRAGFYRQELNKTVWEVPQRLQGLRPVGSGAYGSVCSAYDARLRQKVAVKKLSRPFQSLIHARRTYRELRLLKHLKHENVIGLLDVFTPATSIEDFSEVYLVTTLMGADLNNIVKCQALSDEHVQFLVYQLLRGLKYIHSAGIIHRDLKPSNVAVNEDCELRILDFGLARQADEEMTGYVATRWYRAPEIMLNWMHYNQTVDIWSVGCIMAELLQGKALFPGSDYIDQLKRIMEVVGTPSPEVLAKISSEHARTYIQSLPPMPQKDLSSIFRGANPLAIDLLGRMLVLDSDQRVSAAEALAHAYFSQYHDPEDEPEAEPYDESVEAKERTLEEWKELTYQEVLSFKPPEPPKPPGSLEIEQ

What is called Papp A→B is the apparent permeability from the apical to the basolateral side of a cell layer. As usually defined, the IC50 is the midpoint of a concentration-inhibition curve. Turning to `CCCCc1cc(-c2c[nH]c3ncc(-c4cnn(C5CCNCC5)c4)cc23)nc(N)n1`, the Activity is -50% in [1]; -97% in data set [2]; -55% in [3]; -92% in data set [4]; -59% in data set [5]; -84% in data set [8]. Besides, the Activity in data set [9] is -72%; in data set [11], -21%; in data set [12], -93%. For the same compound, the microsomal CLint in data set [6] and in data set [7] was < 10 µL/min/mg throughout. In addition, the apical-to-basolateral permeability (Papp A→B) in [10] is 0.3 ×10⁻⁶ cm/s. For the same compound, the IC50 in data set [13] was > 30 µM.

For `CCCCc1cc(-c2c[nH]c3ncccc23)nc(N)n1`, the Activity in data set [1] is 3%; in [14], 1%; in [15], -15%; in data set [3], -18%; in data set [16], 17%; in data set [4], -90%. Besides, the Activity is -52% in [17]; -23% in [5]; -80% in [8]; -10% in data set [9]; -5% in data set [11]; 4% in data set [18]. Also, the Activity in data set [12] was -37%. Besides, the IC50 in [13] was > 10 µM.

For the compound `CCc1cc(-c2c[nH]c3ncc(-c4cnn(C5CCNCC5)c4)cc23)nc(N)n1`, the Activity is -5% in data set [1]; -97% in data set [2]; -73% in data set [3]; -94% in [4]; -46% in data set [5]; -87% in data set [8]. For the same compound, the Activity in data set [9] was -40%; in data set [11], -18%; in [12] it was -65%. Also, the microsomal CLint in data set [6] and in data set [7] was < 10 µL/min/mg throughout. The Papp A→B in data set [10] amounted to 1.3 ×10⁻⁶ cm/s.

As to `Nc1nccc(-c2c[nH]c3ncccc23)n1` [MERIOLIN 1], the Activity in data set [1] is -27%; in data set [2], -44%; in data set [14], -11%; in [15] it was -3%; in [3], -28%; in [16], -8%. The Activity in data set [4] was -95%; in [17] it was -69%; in data set [5], -15%; in data set [8], -82%; in data set [9], -35%; in [11], -4%. Further, the Activity is 4% in data set [19], -2% in [18] and -17% in data set [12].

The record behind these values is ChEMBL document CHEMBL3813616, “Discovery of novel 7-azaindoles as PDK1 inhibitors” (Bioorg Med Chem Lett, 2016).
